These results are taken from ChEMBL document CHEMBL1143044, “The isolation of secondary metabolites and in vitro potent anti-cancer activity of clerodermic acid from Enicosanthum membranifolium” (Bioorg Med Chem, 2007).

As a reminder, the IC50 is the concentration needed to halve the response being measured. Read a low IC50 as higher potency.

Common to all, as to assay type: functional, cell-based
The test system of assay [1] is HL-60. Description: Growth inhibition of human HL60 cells by Trypan blue exclusion test.
Assay [2] relates to HL-60. Nature of the assay: Induction of apoptosis in human HL60 cells assessed as nucleosomal DNA fragmentation after 24 hrs.
For assay [3], the system named is HL-60. Nature of the assay: Induction of apoptosis in human HL60 cells at 200 uM in presence of 100 uM caspase inhibitor ZVADFMK by Trypan blue exclusion test.

Structures are written as SMILES. Activity calls are given as the source filed them. The calls are words filed in the database; no cut-off is given here.

On to `C[C@@H]1CC[C@@]2(C)C(C(=O)O)=CCCC2[C@@]1(C)CCC1=CC(=O)OC1` (stereo partly drawn) [CLERODERMIC ACID], for which inhibition with HL-60 [1] was half-maximal at 68 µM (IC50). Also, the result in the assay with HL-60 [2] and in the assay on HL-60 [3] was Active.
